Molecules are shown by their SMILES.

Data on one molecule can be found in US20250283050A1, “METHOD OF CANCER TREATMENT” (priority 2021, published 2025).

One assay has as its system stomach cancer. Put plainly: en bloc tumor culture with chemotherapeutic agent and Hom-1-TAMs: stomach cancer. Type of assay: cell-based. The conditions noted are these: agent plus Hom-1-TAMs. Here is the method:
Besides CRC, Hom-1-TAMs reverse immune polarity of PDAC and NSCLC TME (data not shown). The effects of Hom-1-TAM on tumoricidal effects of DOX were further explored on other tumor types, such as PDAC, NSLC, esophageal cancer and stomach cancers.
(§1) Additional chemo-reagents used in this study are listed below.
(§2) Tumor tissue were washed with 1×PBS buffer plus antibiotics and then cut into 0.5 cm pieces. Tissues were cultured in 2 mL of RPMI 1640 medium, supplemented with 2-10% FBS (Sigma) and 1% antibiotic-antimycotic solution (Gibco) in 24-well plate (Corning). The cultures were incubated at a 37° C., 5% CO2 incubator. […] To evaluate the effect of chemotherapeutic agents, chemo-reagents at indicated concentration or PBS was used instead of the anti-PD-1 antibody. For en bloc tissue and macrophage co-culture assay, 0.25×10^6 GFP-Hom-1 or control GFP transfected autologous macrophages of the same patient were added to the en bloc tissue culture wells. After gently shaking, the plate was incubated at 37° C., 5% CO2 for 3-5 days. The en bloc tissues were then subjected to single 1 cell isolation and analysis as described.

In the next assay the test system is ovarian cancer. Put plainly: en bloc tumor culture with chemotherapeutic agent and Hom-1-TAMs: ovarian cancer. Type of assay: cell-based. The note with it: agent plus Hom-1-TAMs. Here is the method: as §1, §2

As for `CC(=O)O[C@H]1C(=O)[C@@]2(C)[C@H]([C@H](OC(=O)c3ccccc3)[C@]3(O)C[C@H](OC(=O)[C@H](O)[C@@H](NC(=O)c4ccccc4)c4ccccc4)C(C)=C1C3(C)C)[C@]1(OC(C)=O)CO[C@@H]1C[C@@H]2O` [Taxol], the “tumoricidal effects promoted by Hom-1-TAMs” value with stomach cancer and in the assay on ovarian cancer was “promoted” in each case.
